System: murine B16 melanoma
Experiment: Antitumor effect in murine B16 melanoma model, tumor size and tumor weight (Example 2)
Assay type: in vivo, C57BL/6 mice
Protocol: As per aseptic tissue culture procedures, one vial of B16 melanoma cells (supplied by Cell Culture Center of CAMS) was thawed and centrifuged at 1000 rpm, 20-25° C. for 5 minutes. The cell pellets were suspended in 0.1-0.5 mL normal saline (NS) and subcutaneously injected into the right axilla of each mouse (approximately 1×10^6 cells/mouse). When the tumor diameter was 1 cm approximately (measured by vernier caliper), the animals were euthanized with CO2 asphyxiation and the tumor was excised. Tumor cells were suspended in normal saline as previously described and the cell adaptation cycle was repeated once.
On Day 0, 1×10^6 B16 cells in a volume of 0.1 mL normal saline were subcutaneously injected into the right axillary area of the mouse. The day of tumor inoculation was defined as Day 0.
Dosing was initiated on Day 1.
Observations were recorded daily for mortality and moribundity. […] The tumors were excised, separated, and weighed.
Tumor volume was calculated using the following formula: Tumor Volume=Length×Width×Width/2 Tumor volume inhibition rate (IR) was calculated according to the formula: IR(TV)=(TVvehicle−TVdrug treated)/TVvehicle×100% TV is the tumor volume on the day of measurement.
The antitumor effect of the test article was also evaluated by tumor weight. The tumor weight of each mouse was recorded after euthanasia, and the inhibition rate of tumor weight was calculated according to the formula: IR(TW)=(Tumor weightvehicle−Tumor weightdrug treated)/Tumor weightvehicle×100%

[1] = Day 9, SCV-07 0.01 mg/kg/day sc
[2] = Day 9, mouse F1, SCV-07 0.1 mg/kg sc
[3] = Day 9, mouse F1, SCV-07 5.0 mg/kg sc
[4] = Day 9, mouse F2, SCV-07 0.01 mg/kg sc
[5] = Day 9, mouse F2, SCV-07 0.1 mg/kg sc
[6] = Day 9, mouse F2, SCV-07 1.0 mg/kg sc
[7] = Day 9, mouse F2, SCV-07 5.0 mg/kg sc
[8] = Day 9, mouse F3, SCV-07 0.1 mg/kg sc
[9] = Day 9, mouse F3, SCV-07 1.0 mg/kg sc
[10] = Day 9, mouse F4, SCV-07 0.01 mg/kg sc
[11] = Day 9, mouse F4, SCV-07 0.1 mg/kg sc
[12] = Day 9, mouse F4, SCV-07 1.0 mg/kg sc
[13] = Day 9, mouse F4, SCV-07 5.0 mg/kg sc
[14] = Day 9, mouse F5, SCV-07 0.01 mg/kg sc
[15] = Day 9, mouse F5, SCV-07 0.1 mg/kg sc
[16] = Day 9, mouse F5, SCV-07 1.0 mg/kg sc
[17] = Day 9, mouse F5, SCV-07 5.0 mg/kg sc
[18] = Day 9, mouse M1, SCV-07 0.01 mg/kg sc
[19] = Day 9, mouse M1, SCV-07 0.1 mg/kg sc
[20] = Day 9, mouse M1, SCV-07 1.0 mg/kg sc
[21] = Day 9, mouse M1, SCV-07 5.0 mg/kg sc
[22] = Day 9, mouse M2, SCV-07 0.01 mg/kg sc
[23] = Day 9, mouse M2, SCV-07 1.0 mg/kg sc
[24] = Day 9, mouse M3, SCV-07 0.01 mg/kg sc
[25] = Day 9, mouse M3, SCV-07 1.0 mg/kg sc
[26] = Day 9, mouse M3, SCV-07 5.0 mg/kg sc
[27] = Day 9, mouse M4, SCV-07 0.1 mg/kg sc
[28] = Day 9, mouse M4, SCV-07 1.0 mg/kg sc
[29] = Day 9, mouse M4, SCV-07 5.0 mg/kg sc
[30] = Day 9, mouse M5, SCV-07 0.01 mg/kg sc
[31] = Day 9, mouse M5, SCV-07 0.1 mg/kg sc
[32] = Day 12, SCV-07 0.01 mg/kg/day sc
[33] = Day 12, SCV-07 0.1 mg/kg/day sc
[34] = Day 12, SCV-07 1.0 mg/kg/day sc
[35] = Day 12, SCV-07 5.0 mg/kg/day sc
[36] = Day 12, mouse F1, SCV-07 0.01 mg/kg sc
[37] = Day 12, mouse F1, SCV-07 0.1 mg/kg sc
[38] = Day 12, mouse F1, SCV-07 1.0 mg/kg sc
[39] = Day 12, mouse F1, SCV-07 5.0 mg/kg sc
[40] = Day 12, mouse F2, SCV-07 0.01 mg/kg sc
[41] = Day 12, mouse F2, SCV-07 0.1 mg/kg sc
[42] = Day 12, mouse F2, SCV-07 1.0 mg/kg sc

N[C@H](CCC(=O)N[C@@H](Cc1c[nH]c2ccccc12)C(=O)O)C(=O)O [SCV-07, γ-D-glutamyl-L-tryptophan]
0.292 ± 0.169 cm^3: Tumor Volume (Mean ± SD) [34]
1.0 cm: Tumor measurements L [37] | Tumor measurements W [37] | Tumor measurements L [38] | Tumor measurements L [39] | Tumor measurements L [40] | Tumor measurements L [41] | Tumor measurements W [41]
54.9%: IR (tumor volume inhibition rate) [35]
0.6 cm: Tumor measurements L [9] | Tumor measurements W [9] | Tumor measurements L [11] | Tumor measurements W [11] | Tumor measurements L [13] | Tumor measurements W [13] | Tumor measurements L [14] | Tumor measurements W [14] | Tumor measurements L [18] | Tumor measurements W [18]
0.02 cm^3: Tumor volumes [24]
0.1 cm: Tumor measurements L [36] | Tumor measurements W [36]
0.469 ± 0.199 cm^3: Tumor Volume (Mean ± SD) [33]
0.9 cm: Tumor measurements W [39] | Tumor measurements L [42] | Tumor measurements W [42]
0.5 cm: Tumor measurements L [2] | Tumor measurements W [2] | Tumor measurements L [3] | Tumor measurements W [3] | Tumor measurements L [4] | Tumor measurements W [4] | Tumor measurements L [5] | Tumor measurements W [5] | Tumor measurements L [6] | Tumor measurements W [6] | Tumor measurements L [7] | Tumor measurements W [7] | Tumor measurements L [8] | Tumor measurements W [8] | Tumor measurements L [10] | Tumor measurements W [10] | Tumor measurements L [16] | Tumor measurements W [16] | Tumor measurements L [17] | Tumor measurements W [17] | Tumor measurements L [21] | Tumor measurements W [21] | Tumor measurements L [23] | Tumor measurements W [23] | Tumor measurements L [26] | Tumor measurements W [26] | Tumor measurements L [29] | Tumor measurements W [29] | Tumor measurements L [30] | Tumor measurements W [30] | Tumor measurements L [31] | Tumor measurements W [31]
0.045 ± 0.042 cm^3: Tumor Volume (Mean ± SD) [1]
−4.3%: IR (tumor volume inhibition rate) [1]
11.5%: IR (tumor volume inhibition rate) (Day 9, SCV-07 0.1 mg/kg/day sc)
37.7%: IR (tumor volume inhibition rate) [33]
0.368 ± 0.223 cm^3: Tumor Volume (Mean ± SD) [32]
5E−04 cm^3: Tumor volumes [36]
0.00 cm^3: Tumor volumes [15] | Tumor volumes (Day 9, mouse M2, SCV-07 0.1 mg/kg sc) | Tumor volumes (Day 9, mouse M3, SCV-07 0.1 mg/kg sc)
0.06 cm^3: Tumor volumes [2] | Tumor volumes [3] | Tumor volumes [4] | Tumor volumes [5] | Tumor volumes [6] | Tumor volumes [7] | Tumor volumes [8] | Tumor volumes [10] | Tumor volumes [16] | Tumor volumes [17] | Tumor volumes [21] | Tumor volumes [23] | Tumor volumes [26] | Tumor volumes [29] | Tumor volumes [30] | Tumor volumes [31]
0.035 ± 0.036 cm^3: Tumor Volume (Mean ± SD) (Day 9, SCV-07 1.0 mg/kg/day sc)
0.340 ± 0.195 cm^3: Tumor Volume (Mean ± SD) [35]
51.2%: IR (tumor volume inhibition rate) [32]
0.03 cm^3: Tumor volumes [22]
0.01 cm^3: Tumor volumes [12] | Tumor volumes [19] | Tumor volumes [20] | Tumor volumes [25] | Tumor volumes [27] | Tumor volumes [28]
0.4 cm: Tumor measurements L [22] | Tumor measurements W [22] | Tumor measurements L [24]
0 cm: Tumor measurements L [15] | Tumor measurements W [15]
0.50 cm^3: Tumor volumes [37] | Tumor volumes [41]
0.41 cm^3: Tumor volumes [39]
−11.0%: IR (tumor volume inhibition rate) (Day 9, SCV-07 5.0 mg/kg/day sc)
0.25 cm^3: Tumor volumes [38] | Tumor volumes [40]
0.36 cm^3: Tumor volumes [42]
0.11 cm^3: Tumor volumes [9] | Tumor volumes [11] | Tumor volumes [13] | Tumor volumes [14] | Tumor volumes [18]
0.048 ± 0.036 cm^3: Tumor Volume (Mean ± SD) (Day 9, SCV-07 5.0 mg/kg/day sc)
0 cm^3: Tumor Volume (Mean ± SD) (Day 3, SCV-07 0.01 mg/kg/day sc, not measurable defined as 0) | Tumor Volume (Mean ± SD) (Day 3, SCV-07 0.1 mg/kg/day sc, not measurable defined as 0) | Tumor Volume (Mean ± SD) (Day 3, SCV-07 1.0 mg/kg/day sc, not measurable defined as 0) | Tumor Volume (Mean ± SD) (Day 3, SCV-07 5.0 mg/kg/day sc, not measurable defined as 0) | Tumor Volume (Mean ± SD) (Day 6, SCV-07 0.01 mg/kg/day sc, not measurable defined as 0) | Tumor Volume (Mean ± SD) (Day 6, SCV-07 0.1 mg/kg/day sc, not measurable defined as 0) | Tumor Volume (Mean ± SD) (Day 6, SCV-07 1.0 mg/kg/day sc, not measurable defined as 0) | Tumor Volume (Mean ± SD) (Day 6, SCV-07 5.0 mg/kg/day sc, not measurable defined as 0)
0.3 cm: Tumor measurements L [12] | Tumor measurements W [12] | Tumor measurements L [19] | Tumor measurements W [19] | Tumor measurements L [20] | Tumor measurements W [20] | Tumor measurements W [24] | Tumor measurements L [25] | Tumor measurements W [25] | Tumor measurements L [27] | Tumor measurements W [27] | Tumor measurements L [28] | Tumor measurements W [28]
19.7%: IR (tumor volume inhibition rate) (Day 9, SCV-07 1.0 mg/kg/day sc)
0.7 cm: Tumor measurements W [38] | Tumor measurements W [40]
0.039 ± 0.038 cm^3: Tumor Volume (Mean ± SD) (Day 9, SCV-07 0.1 mg/kg/day sc)
61.3%: IR (tumor volume inhibition rate) [34]
